Results as given in US7618975B2, “4-arylamino-quinazolines and analogs as activators of caspases and inducers of apoptosis and the use thereof” (Myriad Pharmaceuticals, Inc., priority 2003, dated 2009).

system: T-47D cells; test: Caspase cascade activation (N-(Ac-DEVD)-N′-ethoxycarbonyl-R110 fluorogenic substrate) in T-47D cells; format: cell-based, Human; settings: T-47D, 24 hr; ratio of net RFU to control; as to Caspase activity Ratio T-47D (24 hr): test concentration or dose not given here; as to Caspase activity Ratio T-47D (48 hr): test concentration or dose not given here

SMILES	Caspase activity Ratio T-47D (24 hr)
Cc1nc(N(C)c2ccc([N+](=O)[O-])cc2)c2ccccc2n1 [Example 100, (2-Methyl-quinazolin-4-yl)-(4-nitro-phenyl)-methyl-amine]	8.9
Cc1nc(N(C)c2ccc(N)cc2)c2ccccc2n1 [Example 101, (4-Amino-phenyl)-(2-methyl-quinazolin-4-yl)-methyl-amine]	9.5
Cc1nc(N(C)c2ccc(N=[N+]=[N-])cc2)c2ccccc2n1 [Example 102, (4-Azido-phenyl)-(2-methyl-quinazolin-4-yl)-methyl-amine]	8.8
Cc1nc(N(C)c2c(Br)cc(N)cc2Br)c2ccccc2n1 [Example 103, (4-Amino-2,6-dibromo-phenyl)-(2-methyl-quinazolin-4-yl)-methyl-amine]	9.3
Cc1nc(N(C)c2ccc(N)cc2Br)c2ccccc2n1 [Example 104, (4-Amino-2-bromo-phenyl)-(2-methyl-quinazolin-4-yl)-methyl-amine]	8.6
Cc1nc(N(C)c2ccc(N(C)C)cc2)c2ccccc2n1 [Example 105, (4-Dimethylamino-phenyl)-(2-methyl-quinazolin-4-yl)-methyl-amine]	8.5
CCOc1ccc(Nc2nc(C)nc3ccccc23)cc1 [Example 106, (4-Ethoxy-phenyl)-(2-methyl-quinazolin-4-yl)-amine]	1.1
CCOc1ccc(N(C)c2nc(C)nc3ccccc23)cc1 [Example 107, (4-Ethoxy-phenyl)-(2-methyl-quinazolin-4-yl)-methyl-amine]	5.2
[2H]c1c([2H])c(N(C)c2nc(C)nc3ccccc23)c([2H])c([2H])c1OC [Example 108]	4.8
COc1ccc(N(C)c2nc(C)nc3ccc([N+](=O)[O-])cc23)cc1 [Example 109, (4-Methoxy-phenyl)-(2-methyl-6-nitro-quinazolin-4-yl)-methyl-amine]	4.6
COc1ccc(N(C)c2nc(C)nc3ccc(N)cc23)cc1 [Example 110, (6-Amino-2-methyl-quinazolin-4-yl)-(4-methoxy-phenyl)-methyl-amine]	8.8
COc1ccc(N(C)c2nc(C)nc3ccc(N=[N+]=[N-])cc23)cc1 [Example 111, (6-Azido-2-methyl-quinazolin-4-yl)-(4-methoxy-phenyl)-methyl-amine]	9.4
COc1ccc(N(C)c2nc(C)nc3cc([N+](=O)[O-])ccc23)cc1 [Example 112, (4-Methoxy-phenyl)-methyl-(2-methyl-7-nitro-quinazolin-4-yl)-amine]	1.0
COc1ccc(N(C)c2nc(C)nc3cc(N)ccc23)cc1 [Example 113, (7-Amino-2-methyl-quinazolin-4-yl)-(4-methoxy-phenyl)-methyl-amine]	3.7
COc1ccc(N(C)c2nc(C)nc3cc(N=[N+]=[N-])ccc23)cc1 [Example 114, (7-Azido-2-methyl-quinazolin-4-yl)-(4-methoxy-phenyl)-methyl-amine]	7.2
COc1c(Br)cc(N(C)c2nc(C)nc3ccc([N+](=O)[O-])cc23)cc1Br [Example 115, (3,5-Dibromo-4-methoxy-phenyl)-(2-methyl-6-nitro-quinazolin-4-yl)-methyl-amine]	1.0
Cc1nc(N(C)c2ccc(C(=O)O)cc2)c2ccccc2n1 [Example 116, 4-(N-Methyl-N-(2-methylquinazolin-4-yl)amino)benzoic Acid]	1.0
CCOC(=O)c1nc(N(C)c2ccc(OC)cc2)c2ccccc2n1 [Example 117, Ethyl 4-(N-(4-Methoxy-phenyl)-N-methylamino)quinazoline-2-carboxylate]	7.4
COc1ccc(N(C)c2nc(C(=O)O)nc3ccccc23)cc1 [Example 118, 4-(N-(4-Methoxy-phenyl)-N-methylamino)quinazoline-2-carboxylic Acid]	1.0
Cc1nc(N(C)c2ccc(C(=O)ON3C(=O)CCC3=O)cc2)c2ccccc2n1 [Example 119, Succinimidyl 4-(N-Methyl-N-(2-methylquinazolin-4-yl)amino)benzoic Acid Ester]	11.8
COc1ccc(N(C)c2nc(SC)nc3ccccc23)cc1 [Example 120, (2-Methylthio-quinazolin-4-yl)-(4-methoxy-phenyl)-methyl-amine]	5.2

SMILES	Caspase activity Ratio T-47D (24 hr)
COc1ccc(N(C)c2nc(N=[N+]=[N-])nc3ccccc23)cc1 [Example 121, (2-Azido-quinazolin-4-yl)-(4-methoxy-phenyl)-methyl-amine]	8.8
COc1ccc(N(C)c2nc(N(C)C)nc3ccccc23)cc1 [Example 122, (2-Dimethylamino-quinazolin-4-yl)-(4-methoxy-phenyl)-methyl-amine]	8.2
CNc1nc(N(C)c2ccc(OC)cc2)c2ccccc2n1 [Example 123, (2-Methylamino-quinazolin-4-yl)-(4-methoxy-phenyl)-methyl-amine]	8.2
Cc1nc(N(C)c2ccc(F)cc2)c2ccccc2n1 [Example 124, (4-Fluoro-phenyl)-(2-methyl-quinazolin-4-yl)-methyl-amine]	5.2
COc1ccc(N(C)c2nc(C)nc3ccccc23)nn1 [Example 125, (6-Methoxy-pyridazin-3-yl)-(2-methyl-quinazolin-4-yl)-methyl-amine]	8.3
COc1cnc(N(C)c2nc(C)nc3ccccc23)cn1 [Example 126, (5-Methoxy-pyrazin-2-yl)-(2-methyl-quinazolin-4-yl)-methyl-amine]	7.6
Cc1nc(Nc2ccc(O)cc2)c2ccccc2n1 [Example 127, (4-hydroxy-phenyl)-(2-methyl-quinazolin-4-yl)-amine]	1.2
COc1ccc(N(C)c2nc(N(C)C)nc3ccccc23)cn1 [Example 128, (2-Dimethylamino-quinazolin-4-yl)-(6-methoxy-pyridin-3-yl)-methyl-amine]	10
CNc1nc(N(C)c2ccc(OC)nc2)c2ccccc2n1 [Example 129, (2-Methylamino-quinazolin-4-yl)-(6-methoxy-pyridin-3-yl)-methyl-amine]	10
C[C@H]1CC[C@@H](Nc2nc(Cl)nc3ccccc23)CC1 [Example 130, (2-Chloro-quinazolin-4-yl)-(cis-4-methylcyclohexyl)-amine]	1.2
CN(c1nc(Cl)nc2ccccc12)[C@H]1CC[C@@H](C)CC1 [Example 132, (2-Chloro-quinazolin-4-yl)-(cis-4-methylcyclohexyl)-methyl-amine]	1.2
CN(c1nc(Cl)nc2ccccc12)[C@H]1CC[C@H](C)CC1 [Example 133, (2-Chloro-quinazolin-4-yl)-(trans-4-methylcyclohexyl)-methyl-amine]	1.2
Cc1nc(N(C)c2cnccn2)c2ccccc2n1 [Example 134, (2-Methyl-quinazolin-4-yl)-(pyrazin-2-yl)-methyl-amine]	1.2
Cc1nc(Nc2ccncc2)c2ccccc2n1 [Example 135, (2-Methyl-quinazolin-4-yl)-(pyridin-4-yl)-amine]	1.2
Cc1nc(N(C)c2ccncc2)c2ccccc2n1 [Example 136, (2-Methyl-quinazolin-4-yl)-(pyridin-4-yl)-methyl-amine]	1.2
COc1ccc(Nc2nc(C)nc3ccccc23)nc1 [Example 137, (5-Methoxy-pyridin-2-yl)-(2-methyl-quinazolin-4-yl)-amine]	1.2
COc1ccc(N(C)c2nc(C)nc3ccccc23)nc1 [Example 138, (5-Methoxy-pyridin-2-yl)-(2-methyl-quinazolin-4-yl)-methyl-amine]	5.0
COc1ccc(N(c2nc(C)nc3ccccc23)C(F)F)cc1 [Example 139, Difluoromethyl-(4-methoxy-phenyl)-(2-methyl-quinazolin-4-yl)-amine]	5.6
COc1ccc(N(C)c2nc(C)nc3nccnc23)cc1 [Example 140, (4-Methoxy-phenyl)-(2-methyl-pteridin-4-yl)-methyl-amine]	7.0
COc1cnc(Nc2nc(C)nc3ccccc23)nc1 [Example 141, (5-Methoxy-pyrimidin-2-yl)-(2-methyl-quinazolin-4-yl)-amine]	1.2

same assay, conditions: T-47D, 48 hr; benzohydrazide analogs table

SMILES	Ratio T-47D (48 hr)
CSc1nc(N(C)NC(=O)c2cccc(C)c2)c2ccccc2n1 [N′,3-dimethyl-N′-(2-(methylthio)quinazolin-4-yl)benzohydrazide]	12.7
COc1ccc(C(=O)NN(C)c2nc(C(F)(F)F)nc3ccccc23)cc1 [N′-(2-(trifluoromethyl)quinazolin-4-yl)-4-methoxy-N′-methylbenzohydrazide]	13.1
CSc1nc(N(C)NC(=O)c2ccccc2)c2ccccc2n1 [N′-methyl-N′-(2-(methylthio)quinazolin-4-yl)benzohydrazide]	14.7
CSc1nc(N(C)NC(=O)c2cccs2)c2ccccc2n1 [N′-methyl-N′-(2-(methylthio)quinazolin-4-yl)thiophene-2-carbohydrazide]	10.1

same assay, conditions: T-47D, 48 hr; ratio of net RFU to control

SMILES	Caspase activity Ratio T-47D (48 hr)
Cc1nc(N(C)c2ccc(N=[N+]=[N-])cc2)c2ccccc2n1 [Example 102, (4-Azido-phenyl)-(2-methyl-quinazolin-4-yl)-methyl-amine]	11.3
